Results on 45 compounds are retold here after US6043248A, “Alpha-substituted pyrimidine-thioalkyl and alkylether compounds as inhibitors of viral reverse transcriptase” (priority 1997, dated 2000).

The first experiment has as its target T1, P236L viral reverse transcriptase (Human immunodeficiency virus type 1 group M subtype B, UniProt P04585, P823L).
T1 construct: P236L viral reverse transcriptase is obtained by PNAS 90: 4713-4717 (1993); made in house
Description: inhibition of viral reverse transcriptase (P236L), cell free assay. It is filed as biochemical. The conditions noted are these: 30 minutes at 37° C., read-out: IC50 (Table I, P236L). The text has this: The utility of the pyrimidine-thioalkyl and alkylether anti-AIDS compounds of Formula IA of this invention can be determined by their ability to inhibit viral reverse transcriptase, an enzyme essential for human immunodeficiency virus replication. This enzyme has characteristics which differentiate it from other known cellular polymerases and it is a unique enzyme which is not found in uninfected cells. Viral reverse transcriptase (Wild Type) is found in extracts from bacterial clones prepared according to the procedure described in AIDS Virus Reverse Transcriptase defined by high level expression in Escherichia coli, EMBO J. 6:3133-3137 (1987). P236L viral reverse transcriptase is obtained by PNAS 90: 4713-4717 (1993). Inhibition of this enzyme is determined in a cell free assay which measures the level of radioactive precursors incorporated into DNA. Extracts prepared according to the procedure of Science, 1125-1129 (1981) are incubated in a mixture of inhibitor, 20 mM dithiothreitol, 60 mM sodium chloride, 0.05% NP-40, 10 mM magnesium chloride, 50 mM Tris pH 8.3, 10 μM [^35 S]-labeled deoxynuleoside-5'-triphosphate, 10 μg/ml RNA template (poly rC or poly rG) and 5 μg/ml DNA primer (oligo dG or oligo dT) for 30 minutes at 37° C. Incorporation of radio-labeled percursor is determined by spotting aliquots of the reaction mixture on DE81 paper, washing the papers to remove unincorporated percursor, drying and determining counts. The results (IC50 means the concentration, in μM of drug, required to inhibit the reverse transcriptase activity (P236L and Wild Type) to the extent of 50%) of various assay(s) are combined and reported as % inhibition and/or IC50 (calculated) in Table I (P236L) and Table II (Wild Type).
In the case of `COC(=O)c1cccc(CSc2nc(N)cc(Cl)n2)c1` [Example 46, 4-amino-6-chloro-2-(3-carbomethoxyphenylmethylthio)-pyrimidine], the IC50 was determined as 0.1 µM.

Consider `Nc1nc(SCc2ccccn2)nc(Cl)c1F` [Example 92, 4-amino-5-fluoro-6-chloro-2-(2-pyridylmethylthio)-pyrimidine], for which the IC50 was determined as 1 µM.

Consider `Cc1cccc(CSc2nc(N)cc(Cl)n2)n1` [Example 113, 4-amino-6-chloro-2-[2-(6-methyl)pyridylmethylthio]-pyrimidine], for which the IC50 is 0.09 µM.

Turning to `Cc1cccc(CSc2nccc(N)n2)c1` [Example 96, 4-amino-2-(3-methylphenylmethylthio)-pyrimidine], the 50% inhibitory concentration (IC50) came out at 50 µM.

As to `Nc1cc(Cl)nc(SCc2cc3ccccc3s2)n1` [Example 158, 4-Amino-6-chloro-2-[(benzothiophen-2-ylmethyl)thio]pyrimidine], the 50% inhibitory concentration (IC50) stood at 1 µM.

As for `Nc1cc(Cl)nc(SCc2c(Cl)cccc2Cl)n1` [Example 167, 4-amino-6-chloro-2-(2,6-dichlorophenyl)methylthio-pyrimidine], the IC50 worked out at 5 µM.

In the case of `CC(C)c1ccnc(CSc2nc(N)cc(Cl)n2)c1` [Example 132, 4-amino-6-chloro-2-[2-(4-isopropyl)pyridylmethylthio]-pyrimidine], the IC50 was 0.02 µM.

Take `Nc1cc(Cl)nc(SCc2cc3c(cc2Cl)OCO3)n1` [Example 62, 4-amino-6-chloro-2-(6-chloro-5-piperonylmethylthio)-pyrimidine]: the IC50 turned out to be 0.02 µM.

Take `COc1ccnc(CSc2nc(N)cc(Cl)n2)c1` [Example 123, 4-amino-6-chloro-2-[2-(4-methoxy)pyridylmethylthio]-pyrimidine]: the IC50 turned out to be 0.05 µM.

Take `Cc1cnc(CSc2nc(N)cc(Cl)n2)cc1C` [Example 140, 4-amino-6-chloro-2-[2-(4,5-dimethyl)pyridylmethylthio]-pyrimidine]: the IC50 is 0.02 µM.

Turning to `NNc1cc(Cl)nc(SCc2ccccc2)n1` [Example 88, 4-hydrazino-6-chloro-2-(benzylthio)-pyrimidine], the IC50 came out at 5 µM.

Turning to `Cc1cccnc1CSc1nc(N)cc(Cl)n1` [Example 117, 4-amino-6-chloro-2-[2-(3-methyl)pyridylmethylthio]-pyrimidine], the IC50 was found to be 1.05 µM.

Turning to `Clc1cc(N2CCOCC2)nc(SCc2ccccc2)n1` [Example 86, 4-morpholino-6-chloro-2-(benzylthio)-pyrimidine], the IC50 worked out at 40 µM.

As to `Cc1ccc(CSc2nc(N)cc(Cl)n2)nc1` [Example 118, 4-amino-6-chloro-2-[2-(5-methyl)pyridylmethylthio]-pyrimidine], the IC50 came to 0.07 µM.

In the case of `Nc1cc(Cl)nc(SCc2ccoc2)n1` [Example 148, 4-Amino-6-chloro-2-[(furan-3-ylmethyl)thio]pyrimidine], the half-maximal inhibitory concentration (IC50) stood at 10 µM.

On to `CCC(CC)c1ccnc(CSc2nc(N)cc(Cl)n2)c1` [Example 151, 4-amino-6-chloro-2-[2-(4-(3-pentyl))pyridylmethylthio]-pyrimidine], for which the half-inhibitory concentration (IC50) worked out at 0.06 µM.

As for `COC(=O)c1ccnc(CSc2nc(N)cc(Cl)n2)c1` [Example 156, 4-amino-6-chloro-2-[2-(4-carbomethoxy)pyridylmethylthio]-pyrimidine], the IC50 stood at 0.1 µM.

Take `Cc1ccnc(CSc2nc(N)cc(Cl)n2)c1` [Example 114, 4-amino-6-chloro-2-[2-(4-methyl)pyridylmethylthio]-pyrimidine]: the IC50 came out at 0.01 µM.

With `Nc1cc(Cl)nc(SCc2cccc(I)c2)n1` [Example 44, 4-amino-6-chloro-2-(3-iodophenylmethylthio)-pyrimidine], the concentration for half-maximal inhibition (IC50) is 0.6 µM.

`Cc1c(N)nc(SCc2ccc3ccccc3c2)nc1Cl` [Example 90, 4-amino-5-methyl-6-chloro-2-(2-naphthylmethylthio)-pyrimidine]: the concentration for half-maximal inhibition (IC50) was determined as 5 µM.

For `Nc1cc(Cl)nc([S+]([O-])Cc2cccc(Br)c2)n1` (stereo not drawn) [Example 67, 4-amino-6-chloro-2-(3-bromophenylmethylsulfinyl)pyrimidine], the IC50 came to 25 µM.

As to `Cc1cc(CSc2nc(N)cc(Cl)n2)no1` [Example 174, 4-Amino-6-chloro-2-[(5-methylisoxazol-3-ylmethyl)thio]pyrimidine], the IC50 was found to be 0.5 µM.

On to `Cc1cnc(CSc2nc(N)cc(Cl)n2)cn1` [Example 175, 4-Amino-6-chloro-2-[(5-methylpyrazin-2-ylmethyl)thio]pyrimidine], for which the IC50 was found to be 8 µM.

Take `CC(C)(C)c1ccc(CSc2nc(N)cc(Cl)n2)cc1` [Example 47, 4-amino-6-chloro-2-(4-t-butylphenylmethylthio)-pyrimidine]: the IC50 was 1 µM.

With `CN(C)c1ccnc(CSc2nc(N)cc(Cl)n2)c1` [Example 146, 4-amino-6-chloro-2-[2-(4-dimethylamino)pyridylmethylthio]-pyrimidine], the IC50 worked out at 0.01 µM.

Turning to `Cc1cc(CSc2nc(N)cc(Cl)n2)nc(C)n1` [Example 142, 4-amino-6-chloro-2-[4-(2,6-dimethyl)pyrimidinylmethylthio]-pyrimidine], the IC50 is 0.5 µM.

Take `CC(C)Oc1cccc(CSc2nc(N)cc(Cl)n2)c1` [Example 109, 4-amino-6-chloro-2-(3-isopropoxyphenylmethylthio)-pyrimidine]: the IC50 was 2 µM.

Turning to `Nc1cc(Cl)nc(SCc2cccc(Cl)c2)n1` [Example 42, 4-amino-6-chloro-2-(3-chlorophenylmethylthio)-pyrimidine], the IC50 was found to be 0.5 µM.

For the compound `Nc1cc(Cl)nc(SCc2ccccc2)n1` [Example 34A, 4-amino-6-chloro-2-(benzylthio)-pyrimidine], the IC50 came out at 2 µM.

For the compound `Nc1cc(Cl)nc(S(=O)(=O)Cc2cccc(Br)c2)n1` [Example 69, 4-amino-6-chloro-2-(3-bromophenylmethylsulfonyl)pyrimidine], the IC50 was 20 µM.

As for `Nc1cc(Cl)nc(SCc2cccc([N+](=O)[O-])c2)n1` [Example 45, 4-amino-6-chloro-2-(3-nitrophenylmethylthio)-pyrimidine], the half-maximal inhibitory concentration (IC50) is 0.11 µM.

Take `Nc1cc(Cl)nc(SCc2cccc3ncccc23)n1` [Example 183, 4-Amino-6-chloro-2-[(quinolin-5-ylmethyl)thio]pyrimidine]: the IC50 was 0.04 µM.

Regarding `Nc1cc(Cl)nc(SCc2cc(N3CCCC3)ccn2)n1` [Example 143, 4-amino-6-chloro-2-[2-(4-pyrrolidino)pyridylmethylthio]-pyrimidine], the IC50 is 0.05 µM.

As for `Nc1cc(Cl)nc(SCc2ccc3cc(F)c(F)cc3c2)n1` [Example 60, 4-amino-6-chloro-2-(6,7-difluoro-2-naphthylmethylthio)-pyrimidine], the IC50 worked out at 10 µM.

Regarding “4-Amino-6-chloro-2-[[(5-chloroimidazo[1,2-a]pyridin-2-yl)methyl]thio]-pyrimidine [Example 172]”, the IC50 is 50 µM.

With `CC(C)Cc1ccnc(CSc2nc(N)cc(Cl)n2)c1` [Example 124, 4-amino-6-chloro-2-[2-(4-(2-methylpropyl))pyridylmethylthio]-pyrimidine], the IC50 is 40 µM.

Turning to `CCCc1ccnc(CSc2nc(N)cc(Cl)n2)c1` [Example 131, 4-amino-6-chloro-2-[2-(4-propyl)pyridylmethylthio]-pyrimidine], the IC50 was 0.05 µM.

For the compound `Cn1ccnc1CSc1nc(N)cc(Cl)n1` [Example 176, 4-Amino-6-chloro-2-[(1-methylimidazol-2-ylmethyl)thio]pyrimidine], the concentration for half-maximal inhibition (IC50) turned out to be 25 µM.

On to `Nc1cc(Cl)nc(SCc2cccc(F)c2)n1` [Example 41, 4-amino-6-chloro-2-(3-fluorophenylmethylthio)-pyrimidine], for which the IC50 came out at 0.2 µM.

As for `Nc1cc(Cl)nc(SCc2ccc3ncccc3c2)n1` [Example 178, 4-Amino-6-chloro-2-[(quinolin-6-ylmethyl)thio]pyrimidine], the IC50 was 0.5 µM.

In the case of `Clc1cc(N2CCCCC2)nc(SCc2ccccc2)n1` [Example 84, 4-piperido-6-chloro-2-(benzylthio)-pyrimidine], the IC50 turned out to be 10 µM.

Staying with this experiment, now noted: IC50 (Table I, P236L), 30 minutes at 37° C.
Turning to `COC(=O)c1ccc(CSc2nc(N)cc(Cl)n2)nc1` [Example 188, 4-amino-6-chloro-2[2-(5-carbomethyoxy)pyridylmethylthio]pyrimidine], half-maximal inhibition (IC50) was put at 50 µM.

Compound `CNc1cc(C#N)nc(SCc2ccc3ccccc3c2)n1` [Example 288, 6-methylamino-2-(2-naphthylmethyl)thio-4-pyrimidine carbonitrile] showed an IC50 of 50 µM.

Consider `Nc1cc(Cl)nc(SCc2ccc(-c3ccccc3)cn2)n1` [Example 133, 4-amino-6-chloro-2-[2-(5-phenyl)pyridylmethylthio]-pyrimidine], for which the midpoint of inhibition, the IC50, lay at 1 µM.

For the compound `Nc1cc(Cl)nc(SCc2nc3ccccc3s2)n1` [Example 99, 4-amino-6-chloro-2-(2-benzothiazolomethylthio)-pyrimidine], half-maximal inhibition (IC50) was put at 0.5 µM.

Usually IC50 stands for the concentration at which inhibition is half-maximal.
